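Test compounds were applied to cells in 96-well plates for 48 hours at 5 doses. GI50 marks 50% less growth.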 The source made the active and inactive calls. No stated cut-off is given here; in the data, active = GI50 up to about 1.1 µM and inactive = higher.
Experiments:
Assay in all cases: inhibition of tumour cell growth, NCI panel, 48 h
HCT-15 = test system: HCT-15
IGROV-1 = test system: IGROV-1
SNB-19 = test system: SNB-19
CAKI-1 = test system: CAKI-1
HT-29 = test system: HT-29
LXFL 529 = test system: LXFL 529
LOX IMVI = test system: LOX IMVI
A549 = test system: A549
KM-20L2 = test system: KM-20L2
HOP-62 = test system: HOP-62
NCI-H226 = test system: NCI-H226
M14 = test system: M14
U-251 = test system: U-251
HCT-116 = test system: HCT-116
OVCAR-4 = test system: OVCAR-4
RPMI-8226 = test system: RPMI-8226
OVCAR-3 = test system: OVCAR-3
A498 = test system: A498
OVCAR-8 = test system: OVCAR-8
SR = test system: SR
DMS-114 = test system: DMS-114
HOP-92 = test system: HOP-92
NCI-H23 = test system: NCI-H23
HL-60 = test system: HL-60
TK-10 = test system: TK-10
EKVX = test system: EKVX
SF-539 = test system: SF-539
SK-MEL-5 = test system: SK-MEL-5
SK-MEL-28 = test system: SK-MEL-28
UACC-62 = test system: UACC-62
MOLT-4 = test system: MOLT-4
SF-295 = test system: SF-295
SN12C = test system: SN12C
M19-MEL = test system: M19-MEL
CCRF-CEM = test system: CCRF-CEM
UACC-257 = test system: UACC-257
NCI-H460 = test system: NCI-H460
DLD-1 = test system: DLD-1
KM12 = test system: KM12
NCI-H522 = test system: NCI-H522
HOP-18 = test system: HOP-18
OVCAR-5 = test system: OVCAR-5
UO-31 = test system: UO-31
Malme-3M = test system: Malme-3M
ACHN = test system: ACHN
SF-268 = test system: SF-268
RXF 393 = test system: RXF 393
SK-OV-3 = test system: SK-OV-3
SNB-75 = test system: SNB-75
COLO 205 = test system: COLO 205
SNB-78 = test system: SNB-78
RXF 631 = test system: RXF 631
SW-620 = test system: SW-620
786-0 = test system: 786-0
K562 = test system: K562
SK-MEL-2 = test system: SK-MEL-2
HCC 2998 = test system: HCC 2998
DMS-273 = test system: DMS-273

Measured: GI50

O=C(COc1ccc(/C=C/C(=O)c2ccc(Cl)cc2)cc1)Nc1c(Cl)cccc1Cl
inactive: IGROV-1 > 100 µM | SNB-19 > 100 µM | CAKI-1 > 100 µM | HT-29 > 100 µM | LXFL 529 78.7 µM | LOX IMVI 56.1 µM | A549 > 100 µM | KM-20L2 > 100 µM | HOP-62 > 100 µM | NCI-H226 > 100 µM | M14 > 100 µM | U-251 68.2 µM | HCT-116 38.2 µM | OVCAR-4 94 µM | RPMI-8226 30.2 µM | OVCAR-3 > 100 µM | A498 > 100 µM | OVCAR-8 51.4 µM | SR 50 µM | DMS-114 33.3 µM | HOP-92 19.1 µM | NCI-H23 77.8 µM | TK-10 > 100 µM | EKVX > 100 µM | SF-539 80.7 µM | SK-MEL-5 48.3 µM | SK-MEL-28 > 100 µM | UACC-62 > 100 µM | MOLT-4 10.7 µM | SF-295 68.7 µM | SN12C > 100 µM | M19-MEL > 100 µM | CCRF-CEM 20.8 µM | UACC-257 79.8 µM | NCI-H460 > 100 µM | DLD-1 > 100 µM | KM12 67.5 µM | NCI-H522 33.1 µM | HOP-18 > 100 µM | OVCAR-5 40.8 µM | UO-31 > 100 µM | Malme-3M > 100 µM | ACHN > 100 µM | SF-268 > 100 µM | RXF 393 36 µM | SK-OV-3 58.3 µM | SNB-75 56.4 µM | COLO 205 > 100 µM | SNB-78 58.9 µM | RXF 631 > 100 µM | SW-620 > 100 µM | 786-0 > 100 µM
active: HL-60 0.0607 µM
> 100 µM: HCT-15

CC(C)(C)OC(=O)C#CC[C@H]1CCCC1/C=C/C(O)=C1/C(=O)NC(CCCNC(=O)OC(C)(C)C)C1=O (stereo not given in full)
inactive: IGROV-1 39.5 µM | SNB-19 30.6 µM | CAKI-1 38.8 µM | HT-29 40.1 µM | LXFL 529 21.8 µM | LOX IMVI 19.8 µM | A549 > 100 µM | KM-20L2 25.1 µM | HOP-62 45.4 µM | NCI-H226 88.1 µM | M14 45.7 µM | U-251 25.9 µM | HCT-116 11.4 µM | OVCAR-4 33.5 µM | RPMI-8226 33.2 µM | OVCAR-3 31.8 µM | A498 45.2 µM | OVCAR-8 15.2 µM | SR 26.2 µM | DMS-114 21.3 µM | HOP-92 23.7 µM | NCI-H23 24.9 µM | HL-60 33.3 µM | TK-10 31.9 µM | EKVX 16.3 µM | SF-539 26.4 µM | SK-MEL-5 47.8 µM | SK-MEL-28 17.1 µM | K562 36 µM | UACC-62 18.3 µM | MOLT-4 32.1 µM | SK-MEL-2 16.6 µM | SF-295 41.4 µM | HCC 2998 42.9 µM | SN12C 40.1 µM | M19-MEL 25.9 µM | CCRF-CEM 27.2 µM | UACC-257 24.2 µM | NCI-H460 20.3 µM | DLD-1 53 µM | KM12 41.6 µM | NCI-H522 16.5 µM | HOP-18 25.7 µM | OVCAR-5 88.5 µM | UO-31 33.7 µM | Malme-3M 21.3 µM | DMS-273 26.1 µM | ACHN 40.7 µM | SF-268 23.9 µM | RXF 393 14.7 µM | SK-OV-3 88.5 µM | SNB-75 32.6 µM | COLO 205 17.8 µM | RXF 631 19.4 µM | SW-620 38.5 µM | 786-0 40.6 µM
